The record followed here is patent publication US12486284B2, “Ubiquitin-specific protease inhibitor and preparation method therefor and use thereof” (CHASER THERAPEUTICS, INC., priority 2019, dated 2025).

Like-named read-outs stand apart in the source and are kept apart here.

One assay has as its target T1, USP25 (Homo sapiens, UniProt Q9UHP3).
T1 construct: purchased R&D Systems
T1 sequence (Q9UHP3 1-1055): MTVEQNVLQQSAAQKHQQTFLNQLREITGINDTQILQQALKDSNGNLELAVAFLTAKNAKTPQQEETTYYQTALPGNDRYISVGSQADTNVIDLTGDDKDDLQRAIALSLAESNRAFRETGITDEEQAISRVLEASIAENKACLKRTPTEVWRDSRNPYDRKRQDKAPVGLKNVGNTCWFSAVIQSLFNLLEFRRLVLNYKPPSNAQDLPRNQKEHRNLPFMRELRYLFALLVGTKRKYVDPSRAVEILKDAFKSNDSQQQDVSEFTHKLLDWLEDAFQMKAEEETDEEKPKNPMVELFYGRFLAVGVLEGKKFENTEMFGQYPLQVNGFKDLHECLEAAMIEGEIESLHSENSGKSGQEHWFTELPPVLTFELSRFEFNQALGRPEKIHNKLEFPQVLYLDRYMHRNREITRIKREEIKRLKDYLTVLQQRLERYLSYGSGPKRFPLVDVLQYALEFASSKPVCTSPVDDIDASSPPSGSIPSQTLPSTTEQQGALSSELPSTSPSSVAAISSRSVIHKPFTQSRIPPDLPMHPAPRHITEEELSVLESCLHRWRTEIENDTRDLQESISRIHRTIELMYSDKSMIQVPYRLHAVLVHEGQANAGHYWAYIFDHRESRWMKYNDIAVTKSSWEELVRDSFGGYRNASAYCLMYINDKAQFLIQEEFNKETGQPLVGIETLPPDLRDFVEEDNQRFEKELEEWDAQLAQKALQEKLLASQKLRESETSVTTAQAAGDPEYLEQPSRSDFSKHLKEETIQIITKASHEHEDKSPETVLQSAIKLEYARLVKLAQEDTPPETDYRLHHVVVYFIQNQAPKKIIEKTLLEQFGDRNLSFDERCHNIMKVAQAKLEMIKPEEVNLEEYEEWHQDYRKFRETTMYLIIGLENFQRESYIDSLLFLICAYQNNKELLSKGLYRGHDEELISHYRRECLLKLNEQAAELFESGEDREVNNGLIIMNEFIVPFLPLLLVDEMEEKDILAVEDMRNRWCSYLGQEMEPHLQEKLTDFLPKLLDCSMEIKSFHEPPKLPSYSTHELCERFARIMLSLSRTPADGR
Kind of assay: USP25 activity measured using ubiquitin-rhodamine 110 method. The format is biochemical. As to conditions: for IC50: purified USP25 15 nM, ubiquitin-rhodamine 110 125 nM, 30 min preincubation; for IC50(F)/IC50(E) USP25: ratio of IC50 of related 3-NH2 compound (F) to IC50 of 3-NHMe compound disclosed herein (E). The method, then:
USP25 activity was measured using ubiquitin-rhodamine 110 method.
(§1) Purified USP25 and the ubiquitin-rhodamine 110 substrate used for measuring DUBs activity were both from R&D Systems. Test compounds were first dissolved in DMSO to prepare a 10 mM stock solution, and then the stock solution was diluted with a buffer solution [containing 20 mM Tris-HCl (pH 8.0), 2 mM CaCl2), 3 mM BME, 0.01% Prionix, 0.01% Triton X-100] to the desired concentration (with DMSO content less than or equal to 0.5%). The dilution was mixed well with USP25 (final concentration 15 nM) in a 96-well plate and incubated at room temperature for 30 min, and then added with the substrate (ubiquitin-rhodamine 110) to 125 nM. The final volume of the whole reaction system was 20 μL. The released fluorescence (excitation wavelength 485 nm, emission wavelength 535 nm) was detected immediately on a microplate reader after the addition of the substrate, and the inhibitory rate of the test compound against USP25 was calculated according to the following formula: Inhibition %=1−[(test compound+fluorescence value of substrate−fluorescence value of test compound (no substrate))/mean fluorescence value of DMSO control group−fluorescence value of test compound (no substrate)]
As in Example 11, according to the inhibitory rates of the test compound against USP25 under different concentrations, IC50 was calculated.

Another assay deals with T2, USP28 (Homo sapiens, UniProt Q96RU2).
T2 construct: purchased R&D Systems
T2 sequence (Q96RU2 1-1077): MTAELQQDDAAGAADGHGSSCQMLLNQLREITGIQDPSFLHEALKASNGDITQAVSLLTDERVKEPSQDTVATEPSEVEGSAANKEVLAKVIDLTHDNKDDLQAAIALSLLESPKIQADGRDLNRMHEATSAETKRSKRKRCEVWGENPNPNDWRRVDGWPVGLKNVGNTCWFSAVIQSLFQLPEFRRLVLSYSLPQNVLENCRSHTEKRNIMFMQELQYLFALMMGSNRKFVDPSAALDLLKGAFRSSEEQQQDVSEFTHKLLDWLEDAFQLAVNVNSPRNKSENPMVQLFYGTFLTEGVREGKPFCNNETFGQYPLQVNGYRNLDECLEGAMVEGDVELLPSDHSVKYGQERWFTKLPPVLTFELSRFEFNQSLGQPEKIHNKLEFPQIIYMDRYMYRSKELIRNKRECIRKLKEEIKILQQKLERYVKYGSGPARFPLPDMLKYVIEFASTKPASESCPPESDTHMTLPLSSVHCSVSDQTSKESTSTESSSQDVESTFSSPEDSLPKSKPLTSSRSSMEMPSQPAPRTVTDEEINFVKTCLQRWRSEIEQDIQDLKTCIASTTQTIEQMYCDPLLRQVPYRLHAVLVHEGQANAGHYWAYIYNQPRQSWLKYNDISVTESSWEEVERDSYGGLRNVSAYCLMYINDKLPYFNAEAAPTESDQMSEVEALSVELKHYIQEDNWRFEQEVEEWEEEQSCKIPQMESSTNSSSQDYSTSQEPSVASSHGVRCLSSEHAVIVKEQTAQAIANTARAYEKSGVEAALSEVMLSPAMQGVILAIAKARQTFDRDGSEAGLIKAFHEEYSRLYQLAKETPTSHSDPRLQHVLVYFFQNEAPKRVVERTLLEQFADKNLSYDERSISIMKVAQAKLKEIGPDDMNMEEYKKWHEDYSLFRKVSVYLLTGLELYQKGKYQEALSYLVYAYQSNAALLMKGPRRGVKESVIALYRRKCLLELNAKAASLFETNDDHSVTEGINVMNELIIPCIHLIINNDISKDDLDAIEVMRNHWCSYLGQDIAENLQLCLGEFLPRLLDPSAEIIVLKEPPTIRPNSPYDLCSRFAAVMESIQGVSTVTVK
Briefly: USP28 activity measured using ubiquitin-rhodamine 110 method. As to conditions: for IC50: purified USP28 4 nM, ubiquitin-rhodamine 110 125 nM, 30 min preincubation; for IC50(F)/IC50(E) USP28: ratio of IC50 of related 3-NH2 compound (F) to IC50 of 3-NHMe compound disclosed herein (E). The format is biochemical. The method, then:
USP28 activity was measured using ubiquitin-rhodamine 110 method.
as §1, with “USP28” for “USP25”, “4” for “15”, “substrate. The” for “substrate, and the”
According to the inhibitory rates of the test compound against USP28 under different concentrations, IC50 was calculated.

[1] abbreviates: read-out: Inhibitory activity against USP25 (IC50).
Where [2] appears, read: Inhibitory activity against USP28 (IC50).
The mark [3] stands for this setting: read-out: Inhibitory activity against USP28 (IC50).
Where [4] appears, read: Inhibitory activity against USP25 (IC50).

As usually defined, the IC50 is the concentration needed to halve the response being measured. For `CNc1c(C(=O)NC2COc3cc(N4CC5CCC(C4)N5)ccc3C2)sc2nc(C)cnc12` (single isomer, unassigned) [Compound I-87], the results for the half-maximal inhibitory concentration (IC50) on USP25 (setting [1]) and at USP28 (setting [2]) were 100 to 1000 nM and < 100 nM, respectively.
In the case of `CNc1c(C(=O)NC2COc3cc(N4CC5CCC(C4)N5)ccc3C2)sc2nc(C)cnc12` (single isomer, unassigned) [Compound I-88], the IC50 on USP25 (setting [1]) and at USP28 (setting [3]) was 1000 to 5000 nM throughout.
In the case of `CNc1c(C(=O)NCCc2ccc(N3C[C@H]4CC[C@@H](C3)N4)cc2)sc2nc(C)ccc12` [Compound I-1, N-4-(3,8-diazabicyclo[3.2.1]octan-3-yl)phenethyl-6-methyl-3-methylaminothiophene[2,3-b]pyridine-2-carboxamide], the IC50 against USP25 (setting [4]) and on USP28 (setting [2]) was < 100 nM throughout. Moreover, the “IC50(F)/IC50(E) USP25” value on USP25 is on record as >20. For the same compound, the “IC50(F)/IC50(E) USP28” value on USP28 is recorded as 18.75.
For the compound `CNc1c(C(=O)NCCc2ccc(N3CCNCC3)cc2)sc2nc(C)ccc12` [Compound I-2], the IC50 at USP25 (setting [1]) and at USP28 (setting [3]) was 100 to 1000 nM each time.
Take `CNc1c(C(=O)NCCc2ccc(C3CCNCC3)cc2)sc2nc(C)ccc12` [Compound I-3]: the IC50 at USP25 (setting [1]) was 100 to 1000 nM; on USP28 (setting [3]), < 100 nM.
On to `CNc1c(C(=O)NCCc2ccc(C3CC4CCC(C3)N4)cc2)sc2nc(C)ccc12` (centres unmarked) [Compound I-4], for which the IC50 on USP25 (setting [4]) and at USP28 (setting [2]) was < 100 nM in each case.
Take `CNc1c(C(=O)NCCc2ccc(C3C4CCC3CNC4)cc2)sc2nc(C)ccc12` (centres unmarked) [Compound I-5]: the half-maximal inhibitory concentration (IC50) at USP25 (setting [1]) and at USP28 (setting [3]) was < 100 nM throughout.
Take `CNc1c(C(=O)NCCc2ccc(N3C4CCC3CNC4)cc2)sc2nc(C)ccc12` [Compound I-6]: the IC50 on USP25 (setting [4]) and at USP28 (setting [2]) was < 100 nM throughout.
As for `CNc1c(C(=O)NCCc2ccc(C3CC4CC3CN4)cc2)sc2nc(C)ccc12` (centres unmarked) [Compound I-7], the IC50 is 100 to 1000 nM at USP25 (setting [1]) and < 100 nM on USP28 (setting [3]).
Taken in the same sequence, the figures for `CNc1c(C(=O)NCCc2ccc(N3CC4CC3CN4)cc2)sc2nc(C)ccc12` (centres unmarked) [Compound I-8] were < 100 nM and < 100 nM.
Consider `CNc1c(C(=O)NCCc2ccc(N3C[C@H]4CC[C@@H](C3)N4)cc2)sc2ncccc12` [Compound I-9], for which the IC50 at USP25 (setting [1]) was 100 to 1000 nM; at USP28 (setting [2]) it was < 100 nM. For the same compound, at USP25, the “IC50(F)/IC50(E) USP25” value is reported as >10. Moreover, the “IC50(F)/IC50(E) USP28” value at USP28 was 9.2.
As for `CCc1ccc2c(NC)c(C(=O)NCCc3ccc(N4C[C@H]5CC[C@@H](C4)N5)cc3)sc2n1` [Compound I-10], the IC50 at USP25 (setting [1]) was 1000 to 5000 nM; at USP28 (setting [2]), < 100 nM.
Taken in the same sequence, the figures for `CCCc1ccc2c(NC)c(C(=O)NCCc3ccc(N4C[C@H]5CC[C@@H](C4)N5)cc3)sc2n1` [Compound I-11] were > 10000 nM and < 100 nM.
The like results for `CNc1c(C(=O)NCCc2ccc(N3C[C@H]4CC[C@@H](C3)N4)cc2)sc2nc(C(C)C)ccc12` [Compound I-12] were, in that order, 5000 to 10000 nM and < 100 nM.
Taken in the same sequence, the figures for `CCCCc1ccc2c(NC)c(C(=O)NCCc3ccc(N4C[C@H]5CC[C@@H](C4)N5)cc3)sc2n1` [Compound I-13] were > 10000 nM and < 100 nM.
Consider `CNc1c(C(=O)NCCc2ccc(N3C[C@H]4CC[C@@H](C3)N4)cc2)sc2nc(CC(C)C)ccc12` [Compound I-14], for which the results for the IC50 on USP25 (setting [1]) and at USP28 (setting [2]) were > 10000 nM and < 100 nM, respectively.
Taken in the same sequence, the figures for `CNc1c(C(=O)NCCc2ccc(N3C[C@H]4CC[C@@H](C3)N4)cc2)sc2nc(C3CC3)ccc12` [Compound I-15] were 1000 to 5000 nM and < 100 nM.
`CNc1c(C(=O)NCCc2ccc(N3C[C@H]4CC[C@@H](C3)N4)cc2)sc2nc(C(F)(F)F)ccc12` [Compound I-16]: the IC50 at USP25 (setting [1]) fell in the range of 1000 to 5000 nM; at USP28 (setting [3]), 100 to 1000 nM.
Taken in the same sequence, the figures for `CNc1c(C(=O)NCCc2ccc(N3C[C@H]4CC[C@@H](C3)N4)cc2)sc2nc(OC)ccc12` [Compound I-17] were 100 to 1000 nM and 100 to 1000 nM.
The like results for `CNc1c(C(=O)NCCc2ccc(N3C[C@H]4CC[C@@H](C3)N4)cc2)sc2ncc(F)cc12` [Compound I-18] were, in that order, > 10000 nM and 100 to 1000 nM.
The like results for `CNc1c(C(=O)NCCc2ccc(N3C[C@H]4CC[C@@H](C3)N4)cc2)sc2ncc(C)cc12` [Compound I-19] were, in that order, > 10000 nM and 1000 to 5000 nM.
`CNc1c(C(=O)NCCc2ccc(N3C[C@H]4CC[C@@H](C3)N4)cc2)sc2nccc(C)c12` [Compound I-20]: the IC50 at USP25 (setting [1]) and on USP28 (setting [3]) was 100 to 1000 nM in each case.
In the case of `CNc1c(C(=O)NCCc2ccc(N3C[C@H]4CC[C@@H](C3)N4)cc2)sc2nccc(C(F)(F)F)c12` [Compound I-21], the IC50 on USP25 (setting [1]) was in the range of 1000 to 5000 nM; at USP28 (setting [3]), 100 to 1000 nM.
